Assay results reported in patent publication US20030195161A1, “Composition comprising camptothecin or a camptothecin derivative and a topoisomerase II inhibitor for the treatment of cancer” (priority 2000, published 2003).
Where two headings read alike, the source gives them in different places. Marks after values point to notes of the source that are not given here.

How the values were obtained:
P388/CPT = test: Percent increase in life span, camptothecin-resistant i.p. P388/CPT leukemia (Example 2); assay type: in vivo, mice; settings: for Comment (chemosensitivity of P388/CPT): minimal activity = ILS greater than 26%; for % ILS: i.p. P388/CPT, highest non-toxic dose
Method: (§1) Cross-resistance between various agents was measured in murine leukemia cell lines. P388/CPT is a camptothecin-resistant leukemia that was established in vitro (Biochem. Pharmacol., 45: 339 (1993)) and maintained in vivo by i.p. passages in DBA2 female mice. The chemosensitivity of i.p. P388/CPT was evaluated with i.v. P388 sensitive reference drugs with different mechanisms of action. Antitumor efficacy was determined at the highest non-toxic dose as percent increase in life span (ILS), where:
(§2) ILS=100×[(median day of death (MDD) of treated mice)−(MDD control mice)][…]
(§3) A minimal level of activity equals an ILS of greater than 26%. P388/CPT was found resistant to camptothecin s.c. and CPT-11, but sensitive to both doxorubicin and etoposide. […] Table II tabulates the results from this study.

P388 = assay type: in vivo, mice; settings: highest non-toxic dose
Method: as §1, §2, §3

MA16/C, sc [1] = test: Dose response combination study, MA16/C sc (Example 5)
Method: (§6) The effectiveness of irinotecan combination chemotherapy methods was tested in a dose response study in a murine tumor model. Three arms were evaluated for tolerance and efficacy. Tolerance was measured by mortality, body weight loss at nadir, host recovery time, and combination toxicity index. Efficacy end points for solid tumor models were tumor growth delay (T/C), log10 cell kill (LCK, defined above), tumor regressions (i.e., complete remission (CR),or partial remission (PR)).
(§7) The LD10 for the single agent was obtained by plotting the toxicity of that agent and the dosage in mg/kg as a log probit graph. Subsequently, the CTI LD10 was obtained by plotting as a log probit graph the observed lethality and the corresponding CTI calculated as the sum of the fraction of the LD10 of each single agent.

MA16/C = MA16/C (C3H/HeN); for Optimal Total Dose: days 5-9; for LCK: days 5-9, at optimal total dose
Method: (§4) This efficacy may be quantified, for example by the log10 cell kill, which is determined by the following formula: […]
(§5) in which T−C represents the time taken for the cells to grow, which is the mean time in days for the tumors of the treated group (T) to reach a predetermined value (1 g for example) and the tumors of the control group (C) to reach the same value, and Td represents the time in days needed for the volume of the tumors in the control group to double. […] A product is considered to be active if the log10 cell kill is greater than or equal to 0.7. A product is considered to be very active if the log10 cell kill is greater than 2.8.

P03 = P03 (B6D2F1), twice daily; for LCK: at optimal total dose
Method: as §4, §5

C51 = C51 (BALB/c), days 5, 7, 9, 13, 15, twice daily; for LCK: at optimal total dose
Method: as §4, §5

C26 = C26 (BALB/c); for LCK: at optimal total dose
Method: as §4, §5

GOS = GOS (B6D2F1); for LCK: at optimal total dose
Method: as §4, §5

[2] = Tolerance of oral and i.v. irinotecan in tumor bearing mice (Example 1); assay type: in vivo; settings: oral and intravenous
[3] = system: Pancreatic Ductal Adenocarcinoma P03
Method: In the first arm, three doses of CPT were given orally on days six through nine, twice a day. In the second arm, three doses of doxorubicin were given intravenously on days six and nine. In the combination third arm, five dosage levels of CPT-11 were administered orally on days six through nine, twice a day, with administration of five dosage levels of doxorubicin intravenously on days six and nine. This third arm illustrated an example of semi-simultaneous administration. In all three arms, the two daily administrations of CPT-11 were given four hours apart.

P03, sc = test: Dose response combination study, P03 sc (Example 5); assay type: in vivo, murine
Method: Three arms were evaluated for tolerance and efficacy.

MA16/C, sc [4] = settings: mouse, in vivo
Method: as §6, §7

[5] = CPT-11 p.o. 38.8 mg/kg/adm, days 6-9 (twice/day)
[6] = CPT-11 p.o. 62.5 mg/kg/adm, days 6-9 (twice/day)
[7] = CPT-11 p.o. 100.8 mg/kg/adm, days 6-9 (twice/day)
[8] = Doxorubicin i.v. 3.8 mg/kg/adm, days 6, 9
[9] = Doxorubicin i.v. 6.2 mg/kg/adm, days 6, 9
[10] = Doxorubicin i.v. 10.0 mg/kg/adm, days 6, 9

## CC[C@@]1(O)C(=O)OCc2c1cc1n(c2=O)Cc2cc3ccccc3nc2-1 [CPT, camptothecin]
P388/CPT; agent s.c.
  Comment (chemosensitivity of P388/CPT): resistant
  % ILS: 0%
P388; P388, agent s.c.
  % ILS: 82%

## CCc1c2c(nc3ccc(OC(=O)N4CCC(N5CCCCC5)CC4)cc13)-c1cc3c(c(=O)n1C2)COC(=O)[C@]3(O)CC [CPT-11, irinotecan]
MA16/C, sc [1]; CPT-11 p.o. single agent at HNTD 198.5 mg/kg, MA16/C sc, days 3-7
  LCK: 2.0
MA16/C, sc [1]; CPT-11 p.o. single agent, MA16/C sc, days 3-7
  HNTD Dose: 198.5 mg/kg
MA16/C; i.v.
  Optimal Total Dose: 130.5 mg/kg
  LCK: 2.6
MA16/C; oral
  Optimal Total Dose: 230.5 mg/kg
  LCK: 2.7
P03; i.v.
  Optimal Total Dose: 346.2 mg/kg
  LCK: 3.2†
P03; i.v., 346.2 mg/kg total
  tumor free survivor on day 120: †1/5 tumor free survivor on day 120.
P03; oral
  Optimal Total Dose: 900 mg/kg
  LCK: 3.4†
P03; oral, 900 mg/kg total
  tumor free survivor on day 120: †1/5 tumor free survivor on day 120.
C51; i.v.
  Optimal Total Dose: 615 mg/kg
  LCK: 3.0
C51; oral
  Optimal Total Dose: 845 mg/kg
  LCK: 2.5
C26; i.v., twice daily
  Optimal Total Dose: 228 mg/kg
  LCK: 0.7
C26; oral, days 3-7 twice daily
  Optimal Total Dose: 558 mg/kg
  LCK: 0.9
GOS; i.v., days 3, 5, 7 twice daily
  Optimal Total Dose: 346.2 mg/kg
  LCK: 2.2
GOS; oral, days 3-7, twice daily
  Optimal Total Dose: 900 mg/kg
  LCK: 2.1
[2]; days post last administration
  nadir: 7 days
[2]; days post nadir (i.e., 12 days post first administration)
  recovery: 5 days
[2]; similar tolerance
  body weight loss: 8.5%
P388/CPT; agent i.v.
  Comment (chemosensitivity of P388/CPT): resistant
  % ILS: 0%
P388; P388, agent i.v.
  % ILS: 91%
[3]; [5]
  Comments: Inactive
  Log10 cell kill: 0.5
  T-C: 4.0 days
  Time for median tumor to reach 1000 mg: 20.4 days
[3]; [6]
  Comments: Active
  Log10 cell kill: 1.2
  T-C: 9.3 days
  Time for median tumor to reach 1000 mg: 25.7 days
[3]; [7]
  Comments: HDT active
  Log10 cell kill: 1.3
  T-C: 9.8 days
  Time for median tumor to reach 1000 mg: 26.2 days
P03, sc; CPT-11 p.o. single agent at HNTD 806 mg/kg, days 6-9 twice daily
  LCK: 1.3
P03, sc; CPT-11 p.o. single agent, days 6-9 twice daily
  HNTD Dose: 806 mg/kg

## COc1cccc2c1C(=O)c1c(O)c3c(c(O)c1C2=O)C[C@@](O)(C(=O)CO)C[C@@H]3O[C@H]1C[C@H](N)[C@H](O)[C@H](C)O1 [doxorubicin]
P388/CPT; agent i.v.
  Comment (chemosensitivity of P388/CPT): sensitive
  % ILS: 180%
P388; P388, agent i.v.
  % ILS: 122%
[3]; [8]
  Comments: Active
  Log10 cell kill: 1.0
  T-C: 7.5 days
  Time for median tumor to reach 1000 mg: 23.9 days
[3]; [9]
  Comments: Active
  Log10 cell kill: 1.2
  T-C: 9.5 days
  Time for median tumor to reach 1000 mg: 25.9 days
[3]; [10]
  Comments: HDT highly active
  tumor free survivors: *There are no values presented because 4 out of 5 animals tested were tumor free survivors.
P03, sc; doxorubicin i.v. single agent at HNTD 20.0 mg/kg, days 6, 9
  tumor free survivors: 4/5
P03, sc; doxorubicin i.v. single agent, days 6, 9
  HNTD Dose: 20.0 mg/kg

## COc1cc([C@@H]2c3cc4c(cc3[C@@H](O[C@@H]3O[C@@H]5CO[C@@H](C)O[C@H]5[C@H](O)[C@H]3O)[C@H]3COC(=O)[C@H]23)OCO4)cc(OC)c1O [etoposide]
MA16/C, sc [1]; mouse, in vivo
  LCK: 2.2
P388/CPT; agent i.v.
  Comment (chemosensitivity of P388/CPT): sensitive
  % ILS: 121%
P388; P388, agent i.v.
  % ILS: 127%
MA16/C, sc [4]
  HNTD Dose: 90.0 mg/kg
